Measured values as given in US20240350446A1, “CAROTENOID SOLUTIONS AND USES THEREOF” (L.E.A.F. HOLDINGS GROUP LLC, priority 2020, published 2024).

Assays:
[1] = Solubility of TSC in aqueous PEG400/NaCl/sucrose formulations; assay type: physicochemical
Experimental: (§1) 1650 grams of sucrose was added to 51.59 Kg of WFI with mixing in a Nalgene tank containing a tank liner. 2475 grams of PEG400 was then added to the tank with mixing. After the sucrose and PEG400 were completely dissolved, 110 grams of TSC was added and the solution was mixed at room temperature for a minimum of 30 minutes or until the solution was clear. The solution was then filtered through a 0.45 μm glass fiber prefilter+0.2 μm sterile filter at a pump speed of 700 mL/min into a 100 L Biobag. A sample of the filtrate was pulled from the Biobag solution for a bioburden test. The Biobag was stored at 2-8° C. for at least 12 hours and then brought to room temperature and sterile filtered through 0.45 μm glass fiber prefilter+0.2 μm sterile filter at a pump speed of 700 mL/min to a 100 L Biobag. The sterile filtrate was then filled into amber 10R vials with a target 10.5 ml fill volume.
Other exemplary TSC aqueous solutions were formulated with varying concentrations of PEG400, NaCl, sucrose and TSC concentrations.
(§2) All formulations could be carried out at room temperature with mixing. The dissolution of TSC was generally completed within 10 minutes. […] The solution pH is around 8.7 and no further pH adjustment was needed. The final formulation has an osmolality around 270 mOsm.

[2] = Properties of TSC aqueous formulation (dissolution, crash-out on dilution/storage, pH, osmolality); assay type: physicochemical
Experimental: as §1, §2

Observation (solubility) ([1]; PEG400 2% (v/v), NaCl 0%, sucrose 0%, TSC 2 mg/mL): soluble
Observation (solubility) ([1]; PEG400 4% (v/v), NaCl 0%, sucrose 0%, TSC 4 mg/mL): soluble
Observation (solubility) ([1]; PEG400 4% (v/v), NaCl 0%, sucrose 3% (w/v), TSC 2 mg/mL): soluble
Observation (solubility) ([1]; PEG400 4% (v/v), NaCl 0.9% (w/w), sucrose 0%, TSC 2 mg/mL (first of two identical lines)): partially soluble
Observation (solubility) ([1]; PEG400 4% (v/v), NaCl 0.9% (w/w), sucrose 0%, TSC 2 mg/mL (second of two identical lines)): soluble
Observation (solubility) ([1]; PEG400 4% (v/v), NaCl 0.9% (w/w), sucrose 0%, TSC 4 mg/mL): partially soluble
Observation (solubility) ([1]; PEG400 6% (v/v), NaCl 0%, sucrose 0%, TSC 4 mg/mL): soluble
Observation (solubility) ([1]; PEG400 8% (v/v), NaCl 0%, sucrose 0%, TSC 8 mg/mL): saturated with some
Observation (solubility) ([1]; PEG400 80% (v/v), NaCl 0% (w/w), sucrose 0% (w/v), TSC 20 mg/mL): soluble
dissolution of TSC, time to completion ([2]; all formulations, room temperature with mixing): ≤ 10 min
TSC crash out of solution after storage ([2]; storage at 2-8° C.): No TSC was observed to crash out
TSC crash out of the solution upon dilution ([2]; ten times dilution in 0.9% saline, 2 mg/mL formulation): No TSC was observed to crash out
SMILES: CC(/C=C/C=C(\C)C(=O)[O-])=C\C=C\C=C(C)\C=C\C=C(/C)C(=O)[O-].[Na+].[Na+] [TSC, trans sodium crocetinate]
